These results are taken from ChEMBL document CHEMBL1201862, “PubChem BioAssay data set” (2004).

Some test systems named below: ACHN; EKVX; HCT-15; HOP-92; HT-29; IGROV-1; M14; NCI-H23; NCI-H460; NCI-H522; OVCAR-3; OVCAR-8; RPMI-8226; SK-MEL-5; SNB-75; A549; SF-539.
Holding throughout (experiment): growth of human tumour cells (NCI), 48 h

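Following 48 hours of exposure in 96-well plates, responses at five concentrations were used to interpolate endpoints linearly. GI50 is the concentration that inhibits growth by half.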 Active and inactive are the calls of the source. Rule as the data show it: active = GI50 up to about 1.1 µM and inactive = higher.

Take `CN1C(=O)CN2C(Cl)(Cl)C2(c2ccccc2F)c2cc([N+](=O)[O-])ccc21` (configuration not stated): the GI50 was 41.5 µM (inactive) in the assay with ACHN; 30.4 µM (inactive) in the assay with EKVX; 41.4 µM in the assay with HCT-15; 19.3 µM (inactive) in the assay with HOP-92; 39.1 µM (inactive) in the assay on HT-29; 63.8 µM (inactive) in the assay on IGROV-1. Besides, the GI50 was > 100 µM (inactive) in the assay on M14; 76 µM (inactive) in the assay on NCI-H23; 33.2 µM (inactive) in the assay on NCI-H460; > 100 µM (inactive) with NCI-H522; > 100 µM (inactive) with OVCAR-3; > 100 µM (inactive) in the assay with OVCAR-8. Further, the results for the GI50 with RPMI-8226, in the assay with SK-MEL-5 and in the assay on SNB-75 were 40.8 µM (inactive), 26.8 µM (inactive) and 17.5 µM (inactive), respectively.
As for `CC1(O)C=CC2CCC1C2O` (configuration not stated), the GI50 in the assay with A549 was 68.9 µM (inactive); in the assay with ACHN, > 100 µM (inactive); with EKVX it was > 100 µM (inactive); with HCT-15, > 100 µM; in the assay with HT-29 it was > 100 µM (inactive); in the assay on IGROV-1, > 100 µM (inactive). For the same compound, the GI50 with M14 is > 100 µM (inactive); in the assay on NCI-H23, > 100 µM (inactive); with NCI-H460 it was 46.5 µM (inactive); with NCI-H522, > 100 µM (inactive); in the assay with OVCAR-3, > 100 µM (inactive); with OVCAR-8, > 100 µM (inactive). Further, the GI50 in the assay on RPMI-8226 was 28.2 µM (inactive); in the assay with SF-539, > 100 µM (inactive); with SK-MEL-5, > 100 µM (inactive); in the assay with SNB-75, > 100 µM (inactive).
With `COc1ccc(OC)c2c1CC(C(=O)O)(C(=O)O)CC2=O`, the GI50 in the assay with A549 is > 100 µM (inactive); in the assay on ACHN, > 100 µM (inactive); in the assay on EKVX, > 100 µM (inactive); in the assay with HCT-15, > 100 µM; in the assay with HOP-92, > 100 µM (inactive); in the assay on IGROV-1 it was > 100 µM (inactive). For the same compound, the GI50 in the assay on M14, in the assay on NCI-H23, in the assay on OVCAR-3, in the assay with SK-MEL-5 and in the assay on SNB-75 was > 100 µM (inactive) each time.
As for `COc1ccc(C(=O)C(C(=O)CCC(=O)Nc2cccc(C(F)(F)F)c2)c2ccccc2)cc1` (configuration not stated), the GI50 in the assay with A549 was 65.9 µM (inactive); in the assay on ACHN it was 80.7 µM (inactive); in the assay with EKVX, > 100 µM (inactive); in the assay with HCT-15 it was 78.5 µM; in the assay on HOP-92 it was 53.6 µM (inactive); in the assay with HT-29, 65.6 µM (inactive). Besides, the GI50 in the assay on IGROV-1 is > 100 µM (inactive); in the assay with M14 it was > 100 µM (inactive); in the assay with NCI-H23, 44.8 µM (inactive); with NCI-H460 it was > 100 µM (inactive); in the assay on NCI-H522 it was 32.1 µM (inactive); with OVCAR-3, 80 µM (inactive). The GI50 in the assay with OVCAR-8 was > 100 µM (inactive); with RPMI-8226, 55.2 µM (inactive); with SF-539 it was > 100 µM (inactive); with SK-MEL-5 it was 33.2 µM (inactive); in the assay on SNB-75 it was > 100 µM (inactive).
For `O=NN(CCCl)C(=O)N[C@H]1CC[C@@H](CC(=O)O)CC1`, the GI50 is > 100 µM (inactive) in the assay with A549; > 100 µM (inactive) with EKVX; > 100 µM with HCT-15; > 84.9 µM (inactive) with HOP-92; > 100 µM (inactive) with HT-29; > 100 µM (inactive) with IGROV-1. Further, the GI50 with NCI-H23 is > 100 µM (inactive); in the assay on NCI-H460, 55.2 µM (inactive); in the assay on NCI-H522 it was > 61.7 µM (inactive); in the assay on OVCAR-3, > 100 µM (inactive); in the assay with OVCAR-8, > 100 µM (inactive); in the assay on RPMI-8226 it was 35.2 µM (inactive). For the same compound, the GI50 with SF-539 is 45.7 µM (inactive); in the assay with SK-MEL-5, > 100 µM (inactive); with SNB-75, > 81.1 µM (inactive).
In the case of `c1ccc(/N=c2\snc3scc(-c4ccccc4)n23)cc1`, the GI50 with A549 was 37.5 µM (inactive); in the assay with ACHN, 48 µM (inactive); with EKVX, 90.2 µM (inactive); in the assay with HCT-15 it was 41.6 µM; with HOP-92, 34.2 µM (inactive); with HT-29, 50.5 µM (inactive). Further, the GI50 with IGROV-1 is 41.8 µM (inactive); with M14, 33 µM (inactive); in the assay on NCI-H23 it was 36.6 µM (inactive); with NCI-H522, 18.7 µM (inactive); with OVCAR-3 it was 22.8 µM (inactive); in the assay with OVCAR-8 it was 48.6 µM (inactive). The GI50 is 28.7 µM (inactive) with RPMI-8226, 37.4 µM (inactive) with SF-539, 24.5 µM (inactive) in the assay with SK-MEL-5 and > 100 µM (inactive) in the assay with SNB-75.
`COc1ccc(C2S/C(=C\c3ccc(O)cc3)C(=O)N2NC(=O)Cc2ccccc2)cc1` (configuration not stated): the GI50 in the assay with A549 is > 100 µM (inactive); in the assay with ACHN it was > 100 µM (inactive); in the assay on HCT-15, > 100 µM; in the assay on HOP-92, > 100 µM (inactive); in the assay with HT-29 it was > 100 µM (inactive); with IGROV-1, > 100 µM (inactive). The GI50 with M14, with NCI-H23, in the assay with NCI-H460, with NCI-H522, in the assay with OVCAR-8 and with RPMI-8226 was > 100 µM (inactive) in each case. The GI50 was > 100 µM (inactive) in the assay on SF-539, > 100 µM (inactive) in the assay on SK-MEL-5 and 90.8 µM (inactive) in the assay on SNB-75.
On to `CCNC1=Nc2ccccc2-n2c(nn3nc4ccccc4c23)N1CC`, for which the GI50 is > 100 µM (inactive) in the assay with A549; > 100 µM (inactive) with ACHN; > 100 µM (inactive) with EKVX; > 100 µM with HCT-15; > 100 µM (inactive) in the assay on HOP-92; 82.6 µM (inactive) in the assay on HT-29. The GI50 was > 100 µM (inactive) in the assay with IGROV-1; > 100 µM (inactive) in the assay with M14; > 100 µM (inactive) in the assay on NCI-H23; > 100 µM (inactive) with NCI-H460; 72.4 µM (inactive) in the assay on NCI-H522; > 100 µM (inactive) in the assay with OVCAR-8. Also, the GI50 with RPMI-8226 was 97.1 µM (inactive); with SF-539, > 100 µM (inactive); in the assay on SK-MEL-5, > 100 µM (inactive); in the assay on SNB-75, > 100 µM (inactive).
As to `C[C@@H]1CC2(C[C@@H](C)C3[C@@H](CC4(C)CCCC5C6=CC(O)(CC[C@]34C)OC6=CC(=O)OC5(C)C)O2)OC1=O` (some centres not stated), the GI50 was > 100 µM (inactive) in the assay on A549; > 100 µM (inactive) in the assay on ACHN; > 100 µM with HCT-15; > 100 µM (inactive) in the assay on HOP-92; > 100 µM (inactive) with IGROV-1; > 100 µM (inactive) with M14. The GI50 with NCI-H23, with NCI-H522, in the assay on OVCAR-3, in the assay on RPMI-8226, with SF-539 and with SK-MEL-5 was > 100 µM (inactive) in each case. Moreover, the GI50 with SNB-75 is 96.2 µM (inactive).
`OCC1O[C@H](O[C@@H]2CCCN3CC(O)C(O)[C@@H]23)C(O)C(O)C1O` (some centres not stated): the GI50 is > 100 µM (inactive) in the assay with A549; > 100 µM (inactive) in the assay on ACHN; > 100 µM (inactive) with EKVX; > 100 µM in the assay on HCT-15; > 100 µM (inactive) in the assay on HOP-92; > 100 µM (inactive) in the assay on HT-29. Further, the GI50 in the assay on IGROV-1, with M14, with NCI-H23, with NCI-H522, with OVCAR-3 and with OVCAR-8 was > 100 µM (inactive) in each case. For the same compound, the GI50 with SF-539, in the assay on SK-MEL-5 and in the assay with SNB-75 was > 100 µM (inactive) throughout.
`COc1cc(C2c3cc4c(cc3[C@@H](Nc3ccc(C(=O)O)cc3)C3COC(=O)[C@H]23)OCO4)cc(OC)c1O` (some centres not stated): the GI50 with A549 was 18.3 µM (inactive); in the assay with ACHN, 31.6 µM (inactive); with EKVX it was 27.4 µM (inactive); with HCT-15, 13.4 µM; with HOP-92 it was 2.46 µM (inactive); in the assay with HT-29, 22 µM (inactive). Moreover, the GI50 in the assay with IGROV-1 is 17.8 µM (inactive); with M14, 20.7 µM (inactive); in the assay with NCI-H23, 10.6 µM (inactive); in the assay on NCI-H460, 2.39 µM (inactive); with OVCAR-3, 20 µM (inactive); in the assay with OVCAR-8, 14.6 µM (inactive). Further, the GI50 in the assay on SF-539 was 6.56 µM (inactive); with SK-MEL-5, 12.1 µM (inactive); in the assay with SNB-75 it was 13.2 µM (inactive).
As for `CCC(=O)O[C@@H]1C2C(OC(C)=O)C34COC(C)([C@@H]3C3C(C[C@]3(C)OC(C)=O)[C@@H](OC(=O)c3ccccc3)C4=O)[C@H](OC(C)=O)[C@@]2(OC(C)=O)C[C@@H]1C` (some centres not stated), the GI50 in the assay on A549 is > 100 µM (inactive); in the assay on ACHN, 36.1 µM (inactive); in the assay with EKVX, 87.1 µM (inactive); in the assay with HCT-15, 16 µM; in the assay with HOP-92, 14.7 µM (inactive); in the assay with HT-29 it was > 100 µM (inactive). Also, the GI50 is 13.7 µM (inactive) with IGROV-1; 33.9 µM (inactive) in the assay on M14; 14.9 µM (inactive) in the assay with NCI-H23; > 100 µM (inactive) with NCI-H460; 37.1 µM (inactive) in the assay on NCI-H522; 21.6 µM (inactive) in the assay on OVCAR-3. Moreover, the GI50 in the assay on OVCAR-8 was 95.5 µM (inactive); in the assay on RPMI-8226, > 100 µM (inactive); with SF-539, 14.9 µM (inactive); in the assay on SK-MEL-5 it was 13.5 µM (inactive); in the assay on SNB-75 it was 3.01 µM (inactive).
In the case of `COC[C@@H]1Cc2cc(OC)c3c(c2[C@H](c2ccc(OC)c(OC)c2)[C@H]1COC)OCO3` [HYPOPHYLLANTHIN], the GI50 in the assay on A549 is 69.8 µM (inactive); in the assay with ACHN, 93.8 µM (inactive); in the assay on EKVX it was > 100 µM (inactive); with HCT-15, > 100 µM; in the assay on HOP-92 it was 70 µM (inactive); in the assay with HT-29 it was > 100 µM (inactive). Moreover, the GI50 is > 100 µM (inactive) with IGROV-1; 50 µM (inactive) with M14; > 100 µM (inactive) in the assay with NCI-H23; > 100 µM (inactive) with NCI-H460; 55.7 µM (inactive) in the assay with NCI-H522; > 100 µM (inactive) in the assay with OVCAR-3. For the same compound, the GI50 in the assay on OVCAR-8 was > 100 µM (inactive); with SF-539, 38.8 µM (inactive); with SK-MEL-5, > 10 µM (inactive); in the assay on SNB-75 it was 28.1 µM (inactive).
